Reference: patent US20240116923A1, “USE OF INDOLE, 6- AND 7-AZAINDOLE DERIVATIVES AS INHIBITORS OF FERROPTOSIS REGULATED CELL DEATH” (Seabelife, priority 2021, published 2024)

B1: BDNF: Brain Derived Neurotrophic Factor, reference compound at 50 ng/mL (protein, UniProt P23560 19-247, looked up)
Neurotrophic factor BDNF …: APMKEANIRGQGGLAYPGVRTHGTLESVNGPKAGSRGLTSLADTFEHVIEELLDEDQKVRPNEENNKDADLYTSRVMLSSQVPLEPPLLFLLEEYKNYLDAANMSMRVRRHSDPARRGELSVCDSISEWVTAADKKTAVDMSGGTVTVLEKVPVSKGQLKQYFYETKCNPMGYTKEGCRGIDKRHWNSQCRTTQSYVRALTMDSKKRIGWRFIRIDTSCVCTLTIKRGR

System: Rat dopaminergic neurons
Experiment: Protective effect after 6-OHDA injury on rat primary dopaminergic neurons survival (TH staining)
Format: cell-based
Details: p<0.0001
Experimental: As explained in Ding et al., J Neurochem., 2004, (89), administration of 6-Hydroxydopamine (6-OHDA), a neurotoxin, has been widely used to cause the selective degeneration of dopamine (DA) neurons in in vitro and in vivo models. These models are used as Parkinson's disease models, which is characterized by the progressive loss of DA neurons of the substantia nigra.
Rat dopaminergic neurons were cultured as described by Schinelli et al., J Neurochem., 1988, 50(6). The cells were seeded at a density of 40 000 cells/well in 96 well-plates (precoated with poly-D-lysine; Greiner, Ref: 655940, Batch: E20093UL) and were cultured at 37° C. in a humidified air (95%)/CO2 (5%) atmosphere. Half of the medium was changed every 2 days with fresh medium. In these conditions, after 5 days of culture, astrocytes are present in the culture and release growth factor allowing neurons differentiation. In this condition, 2 to 5% of neurons are dopaminergic neurons.
6-OHDA (Sigma, Ref: 162957, Batch MKCK5243) was reconstituted in define culture medium at 40 μM (stock solution). The control medium was prepared in the same conditions. After 7 days of culture, primary mesencephalic neurons were pre-treated for 1 hour with test compounds or reference compound (BDNF, 50 ng/mL) and then intoxicated with 6-OHDA at a final concentration of 20 μM for 2 days incubation in order to induce a neuronal cell death of about 50%+/−5%.
After 2 days of intoxication in presence or absence of test compounds, cells were fixed by a solution of 4% paraformaldehyde (Sigma, ref 6148, Batch: SZBE2390V) for 20 min at room temperature, the control conditions were fixed as well following the same procedure. The cells were then permeabilized and nonspecific sites were blocked with a solution of phosphate buffered saline (PBS; PanBiotech; ref: P04-36500, Batch: 7701020) containing 0.1% of saponin (Sigma; ref: S7900, Batch: BCBL8667V) and 1% FCS for 15 min at room temperature. Cells were incubated with a mouse monoclonal anti-Tyrosine Hydroxylase (TH, 1/10 000, Sigma; ref: T1299, Batch: 014M4835) antibody in a solution of PBS overnight at 4° C. Antibody against TH stained dopaminergic neurons. […] Nuclei of cells were labelled by a fluorescent marker (Hoechst, Sigma; ref: B1155, Batch: 046M4048V) in the same solution. For each condition, 20 pictures per well were taken using InCell Analyzer™ 2200 (GE Healthcare) with 20× magnification. Images of each culture well were taken in same condition. Analysis of cell bodies of TH positive neurons was performed using Developer software (GE healthcare). A total of 6 data per experimental condition were provided.

Molecule | cellular death of dopaminergic neurons (6-OHDA 20 μM alone, 2 days) [%] | cellular death of dopaminergic neurons after 6-OHDA injury (50 ng/mL, 1 h pre-treatment, 6-OHDA 20 μM 2 days (6-OHDA alone 48%)) [%]
NCCc1cc(O)c(O)cc1O [Compound 6-OHDA, 6-hydroxydopamine, reference compound] | 48 | –
B1 | – | 15
